Ten compounds from patent publication US10780090B2, “Heteroaryl compounds useful as inhibitors of SUMO activating enzyme” (Millennium Pharmaceuticals, Inc., priority 2014, dated 2020) can be followed below.

This assay addresses recombinant human SAE enzyme (Homo sapiens (Human), UniProt Q9UBT2). Description: SAE HTRF enzyme assay. The class given is biochemical. Conditions: for Percent Inhibition: SAE inhibition at compound concentration 0.111 μM; for IC50: SAE inhibition, class symbols, legend in nM. In a few lines:
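Human SAE (0.11 nM) with 0.5 μM ATP, 0.125 μM Sumo-Flag and 0.01 μM Ubc9-GST in HEPES pH 7.5, 5 mM MgCl2, 250 μM GSH; 105 min at 24 °C. Stopped with EDTA; HTRF read after 2 h with Eu-anti-Flag and APC-anti-GST. Percent inhibition or IC50 reported.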
In general terms: In TR-FRET formats the signal depends on donor and acceptor labels being close together.

Some results are limits rather than exact numbers.

Sequence of recombinant human SAE enzyme (Q9UBT2 whole entry): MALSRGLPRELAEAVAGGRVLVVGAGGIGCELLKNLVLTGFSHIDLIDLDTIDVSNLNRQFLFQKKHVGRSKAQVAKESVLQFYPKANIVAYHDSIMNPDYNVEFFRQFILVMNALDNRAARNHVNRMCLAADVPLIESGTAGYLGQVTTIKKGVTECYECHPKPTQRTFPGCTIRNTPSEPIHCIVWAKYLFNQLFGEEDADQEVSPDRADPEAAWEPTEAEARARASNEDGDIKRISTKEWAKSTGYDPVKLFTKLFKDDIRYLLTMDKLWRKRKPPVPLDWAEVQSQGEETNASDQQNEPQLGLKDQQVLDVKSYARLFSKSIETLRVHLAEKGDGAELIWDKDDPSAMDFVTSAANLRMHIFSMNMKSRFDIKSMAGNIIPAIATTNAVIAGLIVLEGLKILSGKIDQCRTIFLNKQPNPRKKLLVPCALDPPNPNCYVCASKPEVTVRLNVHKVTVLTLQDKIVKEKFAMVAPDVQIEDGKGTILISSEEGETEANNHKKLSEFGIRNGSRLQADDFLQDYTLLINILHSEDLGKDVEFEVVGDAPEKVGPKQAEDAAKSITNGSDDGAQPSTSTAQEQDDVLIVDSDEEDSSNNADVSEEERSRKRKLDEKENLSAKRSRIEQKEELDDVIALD
Sequence of recombinant human SAE enzyme (Q9UBE0 whole entry partner): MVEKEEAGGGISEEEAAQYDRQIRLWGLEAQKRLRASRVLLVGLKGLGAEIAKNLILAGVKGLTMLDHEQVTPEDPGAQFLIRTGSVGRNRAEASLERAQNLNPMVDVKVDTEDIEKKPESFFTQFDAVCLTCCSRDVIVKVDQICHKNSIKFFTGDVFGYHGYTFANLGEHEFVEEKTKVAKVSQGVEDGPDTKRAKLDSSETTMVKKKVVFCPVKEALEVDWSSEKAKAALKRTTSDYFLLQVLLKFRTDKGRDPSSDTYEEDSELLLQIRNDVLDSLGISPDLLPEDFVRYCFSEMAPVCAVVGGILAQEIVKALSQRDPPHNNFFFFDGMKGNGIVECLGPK

For `NS(=O)(=O)OC[C@H]1C[C@@H](Nc2ncncc2C(=O)c2cc([C@@H]3OCCc4cc(F)c(F)cc43)c(Cl)s2)C[C@@H]1O` (single isomer, unassigned) [I-290a, [(1R,2S,4R)-4-{[5-({5-chloro-4-[(1R)-6,7-difluoro-3,4-dihydro-1H-isochromen-1-yl]-2-thienyl}carbonyl)pyrimidin-4-yl]amino}-2-hydroxycyclopentyl]methyl sulfamate or [(1R,2S,4R)-4-{[5-({5-chloro-4-[(1S)-6,7-difluoro-3,4-dihydro-1H-isochromen-1-yl]-2-thienyl}carbonyl)pyrimidin-4-yl]amino}-2-hydroxycyclopentyl]methyl sulfamate], the “Percent Inhibition” value is given as 62% and the IC50 (usually the concentration that gives 50% inhibition) was 10 to 100 nM.
For `NS(=O)(=O)OC[C@H]1C[C@@H](Nc2ncncc2C(=O)c2cc([C@@H]3OCCc4cc(F)c(F)cc43)c(Cl)s2)C[C@@H]1O` (single isomer, unassigned) [I-290b, [(1R,2S,4R)-4-{[5-({5-chloro-4-[(1R)-6,7-difluoro-3,4-dihydro-1H-isochromen-1-yl]-2-thienyl}carbonyl)pyrimidin-4-yl]amino}-2-hydroxycyclopentyl]methyl sulfamate or [(1R,2S,4R)-4-{[5-({5-chloro-4-[(1S)-6,7-difluoro-3,4-dihydro-1H-isochromen-1-yl]-2-thienyl}carbonyl)pyrimidin-4-yl]amino}-2-hydroxycyclopentyl]methyl sulfamate], the “Percent Inhibition” value was determined as 97% and the IC50 is less than 10 nM.
For `Cc1ccc2c(n1)C(c1cc(C(=O)c3cncnc3N[C@@H]3C[C@H](COS(N)(=O)=O)[C@@H](O)C3)sc1C)OCC2` (single isomer, unassigned) [I-291a, [(1R,2S,4R)-2-hydroxy-4-{[5-({5-methyl-4-[(8S)-2-methyl-5,8-dihydro-6H-pyrano[3,4-b]pyridin-8-yl]-2-thienyl}carbonyl)pyrimidin-4-yl]amino}cyclopentyl]methyl sulfamate or [(1R,2S,4R)-2-hydroxy-4-{[5-({5-methyl-4-[(8R)-2-methyl-5,8-dihydro-6H-pyrano[3,4-b]pyridin-8-yl]-2-thienyl}carbonyl)pyrimidin-4-yl]amino}cyclopentyl]methyl sulfamate] the same measures were 17% and 100 to 1000 nM.
On to `Cc1ccc2c(n1)C(c1cc(C(=O)c3cncnc3N[C@@H]3C[C@H](COS(N)(=O)=O)[C@@H](O)C3)sc1C)OCC2` (single isomer, unassigned) [I-291b, [(1R,2S,4R)-2-hydroxy-4-{[5-({5-methyl-4-[(8S)-2-methyl-5,8-dihydro-6H-pyrano[3,4-b]pyridin-8-yl]-2-thienyl}carbonyl)pyrimidin-4-yl]amino}cyclopentyl]methyl sulfamate or [(1R,2S,4R)-2-hydroxy-4-{[5-({5-methyl-4-[(8R)-2-methyl-5,8-dihydro-6H-pyrano[3,4-b]pyridin-8-yl]-2-thienyl}carbonyl)pyrimidin-4-yl]amino}cyclopentyl]methyl sulfamate], for which the “Percent Inhibition” value is 99% and the IC50 was less than 10 nM.
For `Cc1sc(C(=O)c2cncnc2N[C@@H]2C[C@H](COS(N)(=O)=O)[C@@H](O)C2)cc1[C@H]1NCCc2ccccc21` (single isomer, unassigned) [I-292a, [(1R,2S,4R)-2-hydroxy-4-{[5-({5-methyl-4-[(1S)-1,2,3,4-tetrahydroisoquinolin-1-yl]-2-thienyl}carbonyl)pyrimidin-4-yl]amino}cyclopentyl]methyl sulfamate or [(1R,2S,4R)-2-hydroxy-4-{[5-({5-methyl-4-[(1R)-1,2,3,4-tetrahydroisoquinolin-1-yl]-2-thienyl}carbonyl)pyrimidin-4-yl]amino}cyclopentyl]methyl sulfamate] the same measures were 99% and less than 10 nM.
For `Cc1sc(C(=O)c2cncnc2N[C@@H]2C[C@H](COS(N)(=O)=O)[C@@H](O)C2)cc1[C@H]1NCCc2ccccc21` (single isomer, unassigned) [I-292b, [(1R,2S,4R)-2-hydroxy-4-{[5-({5-methyl-4-[(1S)-1,2,3,4-tetrahydroisoquinolin-1-yl]-2-thienyl}carbonyl)pyrimidin-4-yl]amino}cyclopentyl]methyl sulfamate or [(1R,2S,4R)-2-hydroxy-4-{[5-({5-methyl-4-[(1R)-1,2,3,4-tetrahydroisoquinolin-1-yl]-2-thienyl}carbonyl)pyrimidin-4-yl]amino}cyclopentyl]methyl sulfamate] the same measures were 87% and 10 to 100 nM.
For `NS(=O)(=O)OC[C@H]1C[C@@H](Nc2ncncc2C(=O)c2cc([C@@H]3OCC(F)(F)c4ccccc43)cs2)C[C@@H]1O` (single isomer, unassigned) [I-293a, [(1R,2S,4R)-4-{[5-({4-[(1R)-4,4-difluoro-3,4-dihydro-1H-isochromen-1-yl]-2-thienyl}carbonyl)pyrimidin-4-yl]amino}-2-hydroxycyclopentyl]methyl sulfamate or [(1R,2S,4R)-4-{[5-({4-[(1S)-4,4-difluoro-3,4-dihydro-1H-isochromen-1-yl]-2-thienyl}carbonyl)pyrimidin-4-yl]amino}-2-hydroxycyclopentyl]methyl sulfamate] the same measures were 57% and 10 to 100 nM.
Turning to `NS(=O)(=O)OC[C@H]1C[C@@H](Nc2ncncc2C(=O)c2cc([C@@H]3OCC(F)(F)c4ccccc43)cs2)C[C@@H]1O` (single isomer, unassigned) [I-293b, [(1R,2S,4R)-4-{[5-({4-[(1R)-4,4-difluoro-3,4-dihydro-1H-isochromen-1-yl]-2-thienyl}carbonyl)pyrimidin-4-yl]amino}-2-hydroxycyclopentyl]methyl sulfamate or [(1R,2S,4R)-4-{[5-({4-[(1S)-4,4-difluoro-3,4-dihydro-1H-isochromen-1-yl]-2-thienyl}carbonyl)pyrimidin-4-yl]amino}-2-hydroxycyclopentyl]methyl sulfamate], the “Percent Inhibition” value was 98% and the IC50 was less than 10 nM.
On the same counts, the results for `NS(=O)(=O)OC[C@H]1C[C@@H](Nc2ncncc2C(=O)c2cc([C@@H]3OCCc4ccc(F)cc43)c(Cl)s2)C[C@@H]1O` (single isomer, unassigned) [I-294, [(1R,2S,4R)-4-[[5-[5-chloro-4-[(1R)-7-fluoroisochroman-1-yl]thiophene-2-carbonyl]pyrimidin-4-yl]amino]-2-hydroxy-cyclopentyl]methyl sulfamate or [(1R,2S,4R)-4-[[5-[5-chloro-4-[(1S)-7-fluoroisochroman-1-yl]thiophene-2-carbonyl]pyrimidin-4-yl]amino]-2-hydroxy-cyclopentyl]methyl sulfamate] are 99% and less than 10 nM.
For `NS(=O)(=O)OC[C@H]1C[C@@H](Nc2ncncc2C(=O)c2cc([C@@H]3OCCc4ccc(F)cc43)c(Cl)s2)C[C@@H]1O` (single isomer, unassigned) [I-294a, [(1R,2S,4R)-4-{[5-({5-chloro-4-[(1R)-7-fluoro-3,4-dihydro-1H-isochromen-1-yl]-2-thienyl}carbonyl)pyrimidin-4-yl]amino}-2-hydroxycyclopentyl]methyl sulfamate or [(1R,2S,4R)-4-{[5-({5-chloro-4-[(1S)-7-fluoro-3,4-dihydro-1H-isochromen-1-yl]-2-thienyl}carbonyl)pyrimidin-4-yl]amino}-2-hydroxycyclopentyl]methyl sulfamate] the same measures were 84% and 10 to 100 nM.
